Laboratory results reported in the supplement of paper PMC6461962.

Columns and labels:
[1] = test system: Rhodanobacter sp. FW104-10B01
Method in brief: (§1)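 Growth was read as OD600 at 24 h, or at 48 h for R2A strain comparisons, after washed cells at a final OD600 of 0.02 (80 µL) were added to 384-well plates holding serially diluted inorganic ion salts or equimolar nitrilotriacetic acid complexes. Aerobic plates were shaken at 700 rpm at 30 °C, but anaerobic plates were not. IC50 was calculated with the drc R package from at least two biological replicate curves, scaled between water and growth-blocking antibiotic controls and excluding wells with precipitate.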

[2] = test system: Pseudomonas fluorescens FW300-N2E2
Method in brief: as §1

[3] = medium / electron acceptor: 10B01 R2A/aerobic
[4] = medium / electron acceptor: 10B01 R2A/nitrate
[5] = medium / electron acceptor: N2E2 Glucose/aerobic
[6] = medium / electron acceptor: N2E2 Glucose/aerobic 0.25xMinerals
[7] = medium / electron acceptor: N2E2 Glucose/aerobic (2)
[8] = medium / electron acceptor: N2E2 KB/aerobic
[9] = medium / electron acceptor: N2E2 LB/aerobic
[10] = medium / electron acceptor: N2E2 LB/aerobic (2)
[11] = medium / electron acceptor: N2E2 LB/nitrate
[12] = medium / electron acceptor: N2E2 Lactate/aerobic
[13] = medium / electron acceptor: N2E2 R2A/aerobic

Row | Compound | IC50 growth inhibition [1, 3] | IC50 growth inhibition [1, 4] | IC50 growth inhibition [2, 5] | IC50 growth inhibition [2, 6] | IC50 growth inhibition [2, 7] | IC50 growth inhibition [2, 8] | IC50 growth inhibition [2, 9] | IC50 growth inhibition [2, 10] | IC50 growth inhibition [2, 11] | IC50 growth inhibition [2, 12] | IC50 growth inhibition [2, 13]
1 | [Cl-].[Cl-].[Sr+2] [Strontium chloride] | 354000 µM | 370000 µM | 332 µM | < 244 µM | < 244 µM | < 244 µM | 27700 µM | 17200 µM | 12800 µM | < 244 µM | 261000 µM
2 | CC(=O)[O-].[Tl+] [Thallium(I) acetate] | > 5000 µM | 2950 µM | < 2.44 µM | < 2.44 µM | < 2.44 µM | < 2.44 µM | < 2.44 µM | < 2.44 µM | < 2.44 µM | < 2.44 µM | < 2.44 µM
3 | [Cl-].[Cl-].[Zn+2] [Zinc chloride] | 1770 µM | 4500 µM | < 2.44 µM | < 2.44 µM | < 2.44 µM | 2720 µM | 2620 µM | 2550 µM | 580 µM | < 2.44 µM | 70.4 µM
4 | O.O.O.O.O=S(=O)([O-])[O-].[Be+2] [beryllium sulfate tetrahydrate] | > 500000 µM | > 500000 µM | 1550 µM | 1550 µM | 1550 µM | 109000 µM | 1610 µM | < 244 µM | 91900 µM | 4800 µM | > 500000 µM
5 | [Cl][Bi]([Cl])[Cl] [bismuth(III) chloride] | 2.79 µM | 354 µM | 10.3 µM | 2.76 µM | 1.53 µM | 57.8 µM | 72.7 µM | 103 µM | 6.03 µM | 7.86 µM | 4.01 µM
6 | O.O.[Cl][Cu][Cl] [copper (II) chloride dihydrate] | > 5000 µM | > 5000 µM | 76.7 µM | 76.7 µM | 76.7 µM | > 5000 µM | > 5000 µM | > 5000 µM | > 5000 µM | 76.7 µM | 525 µM
7 | O.[Au+3].[Cl-].[Cl-].[Cl-] [gold (III) chloride hydrate] | < 0.244 µM | < 0.244 µM | < 0.244 µM | 1.97 µM | < 0.244 µM | < 0.244 µM | < 0.244 µM | < 0.244 µM | < 0.244 µM | 0.257 µM | < 0.244 µM
8 | [Cl][Pb][Cl] [lead (II) chloride] | > 5000 µM | > 5000 µM | > 5000 µM | 38 µM | > 5000 µM | > 5000 µM | > 5000 µM | > 5000 µM | > 5000 µM | > 5000 µM | 140 µM
9 | [Cl][Hg][Cl] [mercury (II) chloride] | < 2.44 µM | < 2.44 µM | < 2.44 µM | < 2.44 µM | < 2.44 µM | < 2.44 µM | < 2.44 µM | < 2.44 µM | < 2.44 µM | < 2.44 µM | < 2.44 µM
10 | [Cl][Pt]([Cl])([Cl])[Cl] [platinum (IV) chloride] | 123 µM | 93.5 µM | 17.5 µM | 17.5 µM | 17.5 µM | 35.2 µM | 172 µM | 66.1 µM | 32.9 µM | 418 µM | 86.1 µM
11 | [K+].[OH-].[OH-].[OH-].[OH-].[OH-].[OH-].[Sb+3] [potassium hexahydroxoantimonate] | > 5000 µM | > 5000 µM | > 5000 µM | 3960 µM | 4820 µM | 4980 µM | > 5000 µM | 4820 µM | 3080 µM | > 5000 µM | > 5000 µM
12 | O.O=[Te](=O)([O-])[O-].[K+].[K+] [potassium tellurate hydrate] | > 500 µM | > 500 µM | > 500 µM | 75.3 µM | 444 µM | > 500 µM | > 500 µM | 377 µM | 84.5 µM | 354 µM | > 500 µM
13 | [Cl-].[Rb+] [rubidium chloride] | 354000 µM | > 500000 µM | 17400 µM | 251000 µM | 15700 µM | 349000 µM | 387000 µM | 384000 µM | 284000 µM | 168000 µM | > 500000 µM
14 | [Cl][Ag] [silver chloride] | > 500 µM | > 500 µM | 139 µM | > 500 µM | > 500 µM | > 500 µM | > 500 µM | > 500 µM | > 500 µM | 154 µM | > 500 µM
15 | [Br-].[Na+] [sodium bromide] | > 500000 µM | > 500000 µM | 354000 µM | 405000 µM | 379000 µM | 354000 µM | 354000 µM | 354000 µM | 303000 µM | 378000 µM | 448000 µM
16 | [F-].[Na+] [sodium fluoride] | 354000 µM | 11600 µM | < 244 µM | < 244 µM | < 244 µM | 322 µM | 1110 µM | 1100 µM | 497 µM | 477 µM | 2900 µM
17 | [O-][I+2]([O-])O [sodium iodate] | 35400 µM | 4500 µM | 4720 µM | 2750 µM | 645 µM | 3530 µM | 8490 µM | 12400 µM | 208 µM | 5410 µM | 7770 µM
